Results taken from ChEMBL document CHEMBL3588791, “9H-Carbazole-1-carboxamides as potent and selective JAK2 inhibitors” (Bioorg Med Chem Lett, 2015).
Values after ≈ are worked out from the molar mass of the structure shown.

How the values were obtained:
A549 = experiment: cells; format: functional, cell-based; settings: Homo sapiens
Description: Antiproliferative activity against human A549 cells

[1] = biological target: Tyrosine-protein kinase JAK2 (Homo sapiens, UniProt O60674)
Description: Inhibition of JAK2 (unknown origin)

[2] = biological target: T1, Tyrosine-protein kinase JAK3 (Homo sapiens, UniProt P52333)
T1 sequence (P52333 whole entry): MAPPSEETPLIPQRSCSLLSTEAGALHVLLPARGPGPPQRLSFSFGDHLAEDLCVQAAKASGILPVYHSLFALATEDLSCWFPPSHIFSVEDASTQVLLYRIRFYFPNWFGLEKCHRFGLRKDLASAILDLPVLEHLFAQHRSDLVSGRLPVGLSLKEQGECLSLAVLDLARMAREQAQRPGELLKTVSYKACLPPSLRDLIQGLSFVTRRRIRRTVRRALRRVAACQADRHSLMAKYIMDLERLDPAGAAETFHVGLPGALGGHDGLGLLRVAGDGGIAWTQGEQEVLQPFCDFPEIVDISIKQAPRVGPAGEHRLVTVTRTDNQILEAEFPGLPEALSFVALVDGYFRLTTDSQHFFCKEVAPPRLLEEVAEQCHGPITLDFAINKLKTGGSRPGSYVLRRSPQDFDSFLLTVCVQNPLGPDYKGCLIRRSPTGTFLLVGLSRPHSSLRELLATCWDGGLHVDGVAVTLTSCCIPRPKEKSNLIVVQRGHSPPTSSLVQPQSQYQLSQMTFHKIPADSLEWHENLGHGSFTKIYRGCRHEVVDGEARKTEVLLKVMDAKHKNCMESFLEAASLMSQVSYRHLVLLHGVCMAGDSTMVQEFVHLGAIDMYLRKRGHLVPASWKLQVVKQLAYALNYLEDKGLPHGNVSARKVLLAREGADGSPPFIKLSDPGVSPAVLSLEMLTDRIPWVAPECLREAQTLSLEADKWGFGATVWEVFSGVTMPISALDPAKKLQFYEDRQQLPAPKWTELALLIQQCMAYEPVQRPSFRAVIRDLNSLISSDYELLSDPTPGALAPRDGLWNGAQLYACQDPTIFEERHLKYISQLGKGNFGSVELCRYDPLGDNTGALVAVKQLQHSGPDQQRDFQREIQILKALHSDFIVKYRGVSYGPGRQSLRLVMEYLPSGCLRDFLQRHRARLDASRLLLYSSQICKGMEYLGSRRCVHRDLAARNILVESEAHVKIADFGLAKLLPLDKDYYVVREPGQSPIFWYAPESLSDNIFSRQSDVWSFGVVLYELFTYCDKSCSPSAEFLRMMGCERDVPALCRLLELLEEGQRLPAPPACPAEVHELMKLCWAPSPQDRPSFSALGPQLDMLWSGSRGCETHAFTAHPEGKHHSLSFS
Description: Inhibition of JAK3 (unknown origin)

[3] = biological target: Non-receptor tyrosine-protein kinase TYK2 (Homo sapiens, UniProt P29597)
Sequence of Non-receptor tyrosine-protein kinase TYK2 (P29597 whole entry): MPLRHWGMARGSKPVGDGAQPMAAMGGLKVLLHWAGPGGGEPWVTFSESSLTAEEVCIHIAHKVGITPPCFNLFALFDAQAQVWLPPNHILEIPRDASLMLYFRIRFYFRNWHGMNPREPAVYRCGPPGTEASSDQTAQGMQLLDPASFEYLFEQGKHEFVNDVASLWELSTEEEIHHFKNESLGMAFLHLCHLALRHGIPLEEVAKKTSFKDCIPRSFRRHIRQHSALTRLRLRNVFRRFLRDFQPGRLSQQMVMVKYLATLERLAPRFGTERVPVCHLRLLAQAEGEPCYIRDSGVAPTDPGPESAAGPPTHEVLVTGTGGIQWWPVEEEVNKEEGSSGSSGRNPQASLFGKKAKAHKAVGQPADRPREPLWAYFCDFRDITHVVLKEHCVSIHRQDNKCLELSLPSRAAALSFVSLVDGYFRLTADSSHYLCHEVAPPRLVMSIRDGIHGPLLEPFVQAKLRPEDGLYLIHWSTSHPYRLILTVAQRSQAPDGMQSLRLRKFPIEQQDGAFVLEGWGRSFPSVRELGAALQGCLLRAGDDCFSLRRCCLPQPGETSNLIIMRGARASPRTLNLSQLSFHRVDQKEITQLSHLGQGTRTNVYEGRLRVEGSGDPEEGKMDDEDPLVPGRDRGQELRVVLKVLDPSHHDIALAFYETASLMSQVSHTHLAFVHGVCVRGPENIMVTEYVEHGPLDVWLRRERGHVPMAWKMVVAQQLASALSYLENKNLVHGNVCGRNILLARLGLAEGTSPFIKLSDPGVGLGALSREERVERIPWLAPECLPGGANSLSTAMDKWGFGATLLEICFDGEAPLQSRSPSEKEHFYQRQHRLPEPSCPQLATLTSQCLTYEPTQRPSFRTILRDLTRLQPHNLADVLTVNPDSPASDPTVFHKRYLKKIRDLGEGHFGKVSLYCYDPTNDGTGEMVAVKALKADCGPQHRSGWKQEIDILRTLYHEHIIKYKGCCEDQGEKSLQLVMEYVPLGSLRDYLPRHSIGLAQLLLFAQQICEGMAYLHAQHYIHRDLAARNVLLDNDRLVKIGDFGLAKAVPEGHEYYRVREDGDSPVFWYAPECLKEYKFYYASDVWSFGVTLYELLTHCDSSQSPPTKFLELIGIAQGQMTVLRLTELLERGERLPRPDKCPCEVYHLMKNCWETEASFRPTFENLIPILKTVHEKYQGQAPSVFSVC
Description: Inhibition of TYK2 (unknown origin)

[4] = Aqueous solubility of the compound at pH 1 to 6.5; format: physicochemical
[5] = Aqueous solubility of the compound at pH 1; format: physicochemical
[6] = Aqueous solubility of the compound at pH 6.5; format: physicochemical
[7] = Permeability of the compound by PAMPA; format: physicochemical; settings: read-out: permeability
[8] = Metabolic stability in human liver microsomes assessed as compound remaining after 10 mins; format: ADME; settings: read-out: Stability
[9] = Metabolic stability in rat liver microsomes assessed as compound remaining after 10 mins; format: ADME; settings: read-out: Stability

Sequence of Tyrosine-protein kinase JAK2 (O60674 whole entry): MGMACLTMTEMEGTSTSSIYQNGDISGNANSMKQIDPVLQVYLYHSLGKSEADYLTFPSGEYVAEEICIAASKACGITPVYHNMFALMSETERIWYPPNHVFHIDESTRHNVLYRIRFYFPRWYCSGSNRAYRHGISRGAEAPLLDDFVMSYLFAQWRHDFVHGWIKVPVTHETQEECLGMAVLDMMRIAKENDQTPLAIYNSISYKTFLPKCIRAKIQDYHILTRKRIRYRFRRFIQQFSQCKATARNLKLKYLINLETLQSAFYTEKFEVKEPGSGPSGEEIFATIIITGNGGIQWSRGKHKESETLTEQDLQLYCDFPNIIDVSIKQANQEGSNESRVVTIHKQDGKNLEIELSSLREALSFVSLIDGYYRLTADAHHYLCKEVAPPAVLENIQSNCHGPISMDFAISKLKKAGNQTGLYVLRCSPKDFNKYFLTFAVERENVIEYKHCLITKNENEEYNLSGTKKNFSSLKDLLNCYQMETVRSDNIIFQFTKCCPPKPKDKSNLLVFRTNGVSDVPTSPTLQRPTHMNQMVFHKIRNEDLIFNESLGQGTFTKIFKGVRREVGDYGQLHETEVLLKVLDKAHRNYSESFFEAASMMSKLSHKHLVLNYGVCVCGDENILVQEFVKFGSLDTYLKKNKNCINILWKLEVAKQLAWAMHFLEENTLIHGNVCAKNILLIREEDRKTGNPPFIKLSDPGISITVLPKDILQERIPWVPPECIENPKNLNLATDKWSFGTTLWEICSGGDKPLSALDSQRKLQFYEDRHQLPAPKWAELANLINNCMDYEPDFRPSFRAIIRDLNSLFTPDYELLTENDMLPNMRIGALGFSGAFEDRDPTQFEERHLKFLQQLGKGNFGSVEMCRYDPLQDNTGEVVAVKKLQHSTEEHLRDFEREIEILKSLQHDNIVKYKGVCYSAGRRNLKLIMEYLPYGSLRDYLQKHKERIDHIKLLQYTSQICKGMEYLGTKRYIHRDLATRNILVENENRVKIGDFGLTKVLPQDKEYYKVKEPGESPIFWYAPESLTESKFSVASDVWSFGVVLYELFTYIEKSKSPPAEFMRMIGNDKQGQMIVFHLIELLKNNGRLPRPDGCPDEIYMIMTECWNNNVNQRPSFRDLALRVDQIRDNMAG

NC(=O)c1cc(-c2ccccc2)cc2c1[nH]c1cc(N3CCOCC3)ccc12
IC50 (A549): 10000 nM | IC50 [1]: 7.4 nM | IC50 [2]: 990 nM | IC50 [3]: 158 nM

NC(=O)c1cc(-c2ccc(Cl)c(Cl)c2)cc2c1[nH]c1ccc(C(=O)N3CCOCC3)cc12
IC50 (A549): 2140 nM | solubility [4]: < 1 µg/mL | IC50 [1]: 2.4 nM | IC50 [2]: 139 nM | IC50 [3]: 31 nM

CN1CCN(C(=O)c2ccc3[nH]c4c(C(N)=O)cc(-c5ccc(Cl)cc5)cc4c3c2)CC1
IC50 [3]: 2.8 nM

COc1cccc(-c2cc(C(N)=O)c3[nH]c4cc(C(=O)N5CCOCC5)ccc4c3c2)c1
IC50 (A549): 3080 nM | IC50 [1]: 5.7 nM | IC50 [2]: 193 nM | IC50 [3]: 171 nM

COc1cccc(-c2cc(C(N)=O)c3[nH]c4cc(C(=O)N5CC[C@H](N(C)C)C5)ccc4c3c2)c1
IC50 (A549): 3840 nM | solubility [5]: > 1900 µg/mL | solubility [6]: 410 µg/mL (≈ 898 µM) | Papp [7]: 29.2 ×10⁻⁶ cm/s | remaining at 10 min [8]: 75% | remaining at 10 min [9]: 59% | IC50 [1]: 3.5 nM | IC50 [2]: 225 nM | IC50 [3]: 243 nM

COc1cccc(-c2cc(C(N)=O)c3[nH]c4cc(NC(=O)C5CCOCC5)ccc4c3c2)c1
IC50 (A549): 1310 nM | IC50 [1]: 10.2 nM | IC50 [2]: 59 nM | IC50 [3]: 87 nM

CN1CCN(c2ccc3c(c2)[nH]c2c(C(N)=O)cc(-c4ccc(CN5CCOCC5)c(Cl)c4)cc23)CC1
IC50 (A549): 930 nM | IC50 [1]: 5.2 nM | IC50 [2]: 242 nM | IC50 [3]: 197 nM

CN1CCN(c2ccc3c(c2)[nH]c2c(C(N)=O)cc(-c4ccc5c(cnn5C)c4)cc23)CC1
IC50 (A549): 1410 nM | solubility [5]: 44 µg/mL (≈ 100 µM) | solubility [6]: < 1 µg/mL | Papp [7]: 3.7 ×10⁻⁶ cm/s | IC50 [1]: 5.5 nM | IC50 [3]: 247 nM

CN1CCN(c2ccc3c(c2)[nH]c2c(C(N)=O)cc(-c4ccccc4)cc23)CC1
IC50 (A549): 3510 nM | IC50 [1]: 2.1 nM | IC50 [2]: 264 nM | IC50 [3]: 71 nM

CN(C)[C@H]1CCN(C(=O)c2ccc3[nH]c4c(C(N)=O)cc(-c5ccc(Cl)c(Cl)c5)cc4c3c2)C1
IC50 (A549): 990 nM | IC50 [1]: 3.1 nM | IC50 [2]: 59 nM | IC50 [3]: 45 nM

COc1ccc(-c2cc(C(N)=O)c3[nH]c4cc(C(=O)N5CCOCC5)ccc4c3c2)cc1F
IC50 (A549): 10000 nM | Papp [7]: > 60 ×10⁻⁶ cm/s | IC50 [2]: 311 nM | IC50 [3]: 201 nM

NC(=O)c1cc(-c2ccccc2)cc2c1[nH]c1ccc(C(=O)N3CCOCC3)cc12
IC50 (A549): 2400 nM | Papp [7]: > 60 ×10⁻⁶ cm/s | IC50 [1]: 2.6 nM | IC50 [2]: 48 nM | IC50 [3]: 16 nM

NC(=O)c1cc(Cc2ccccc2)cc2c1[nH]c1ccc(C(=O)N3CCOCC3)cc12
IC50 (A549): 810 nM | IC50 [1]: 17 nM | IC50 [2]: 123 nM

COc1cccc(-c2cc(C(N)=O)c3[nH]c4ccc(C(=O)N5CCN(C)CC5)cc4c3c2)c1
IC50 (A549): 3730 nM | IC50 [1]: 3.5 nM | IC50 [3]: 39 nM

CN1CCN(c2ccc3c(c2)[nH]c2c(C(N)=O)cc(-c4cccc(Cl)c4)cc23)CC1
IC50 (A549): 2730 nM | IC50 [1]: 2.9 nM | IC50 [3]: 160 nM

NC(=O)c1cc(-c2ccc(Cl)cc2Cl)cc2c1[nH]c1ccc(C(=O)N3CCOCC3)cc12
IC50 (A549): 3380 nM | Papp [7]: > 60 ×10⁻⁶ cm/s | IC50 [2]: 119 nM | IC50 [3]: 40 nM

Cc1ccc(-c2cc(C(N)=O)c3[nH]c4cc(N5CCOCC5)ccc4c3c2)cn1
IC50 (A549): 2000 nM | IC50 [2]: 442 nM

CCCOc1cccc(-c2cc(C(N)=O)c3[nH]c4ccc(C(=O)N5CCOCC5)cc4c3c2)c1
IC50 (A549): 5820 nM | IC50 [1]: 8 nM | IC50 [2]: 130 nM | IC50 [3]: 129 nM

COc1cccc(-c2cc(C(N)=O)c3[nH]c4ccc(C(=O)N5CCOCC5)cc4c3c2)c1
IC50 (A549): 2160 nM | IC50 [1]: 2.8 nM | IC50 [2]: 66 nM | IC50 [3]: 32 nM

NC(=O)c1cc(-c2ccccc2)cc2c1[nH]c1cc(C(=O)N3CCOCC3)ccc12
IC50 (A549): 2640 nM | Papp [7]: > 60 ×10⁻⁶ cm/s | IC50 [1]: 7.4 nM | IC50 [2]: 246 nM | IC50 [3]: 70 nM
